Data: PubChem BioAssay (NCI)
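These data come from cells grown in 96-well plates and exposed to compound for 48 hours at five concentrations. Abbreviation: GI50, concentration required for 50% inhibition of growth. TGI: concentration producing complete growth inhibition.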

Tests used:
Experiment in all cases: NCI tumour cell line growth inhibition, 48 h
SK-OV-3 ovarian = tested on: SK-OV-3 ovarian
MOLT-4 leukemia = tested on: MOLT-4 leukemia
EKVX NSCLC = tested on: EKVX NSCLC
NCI/ADR-RES ovarian = tested on: NCI/ADR-RES ovarian
TK-10 renal = tested on: TK-10 renal
MDA-MB-435 = tested on: MDA-MB-435
NCI-H522 lung = tested on: NCI-H522 lung
NCI-H23 lung = tested on: NCI-H23 lung
U251 CNS = tested on: U251 CNS
K-562 leukemia = tested on: K-562 leukemia

Row | SMILES | TGI (SK-OV-3 ovarian) [µM] | TGI (MOLT-4 leukemia) [µM] | TGI (EKVX NSCLC) [µM] | TGI (NCI/ADR-RES ovarian) [µM] | TGI (TK-10 renal) [µM] | TGI (MDA-MB-435) [µM] | TGI (NCI-H522 lung) [µM] | TGI (NCI-H23 lung) [µM] | TGI (U251 CNS) [µM] | TGI (K-562 leukemia) [µM] | GI50 (SK-OV-3 ovarian) [µM] | GI50 (MOLT-4 leukemia) [µM] | GI50 (EKVX NSCLC) [µM] | GI50 (NCI/ADR-RES ovarian) [µM] | GI50 (TK-10 renal) [µM] | GI50 (MDA-MB-435) [µM] | GI50 (NCI-H522 lung) [µM] | GI50 (NCI-H23 lung) [µM] | GI50 (U251 CNS) [µM] | GI50 (K-562 leukemia) [µM]
1 | CCCCCCNC(=O)c1cc(CCc2cc(O)ccc2O)ccc1O | 25 | > 24.5 | 15.8 | > 67.7 | 9.15 | 19.6 | 3.05 | 28.5 | 5.58 | 8.87 |  |  |  |  |  |  |  |  |  | 
2 | C/C(=C\c1ccccc1)C(=O)NCc1ccc(C(=O)NCCC(C)C)cc1 | 94.6 | > 100 | > 100 | > 100 | > 100 | > 100 | > 100 | > 100 | > 100 | > 100 |  |  |  |  |  |  |  |  |  | 
3 | CN(c1cc2ncc(=O)[nH]c2cc1NC(N)=NCc1ccc(Cl)cc1)C1CCCCC1 | 15.8 | 14.6 | 14.5 | 50 | 15.2 | 12.8 | 16.1 | 15.9 | 13.4 | 9.73 | 7.6 | 6.59 | 6.65 | 23.1 | 7.44 | 6.34 | 7.39 | 8.25 | 5.96 | 2.38
4 | O=C(C=P(c1ccccc1)(c1ccccc1)c1ccccc1)c1cccc(-c2cccc([N+](=O)[O-])c2)c1 | 51.2 | 5.37 | > 100 | > 100 | > 100 |  | 4.4 | 26.4 | > 100 | > 100 |  |  |  |  |  |  |  |  |  | 
5 | CSc1nc(NC2OCC(OC(C)=O)C(OC(C)=O)C2OC(C)=O)c(N=C(C)C(C)=O)c(=O)[nH]1 (stereo unspecified) |  | > 100 | > 100 |  | > 100 |  |  | > 100 | > 100 | > 100 |  |  |  |  |  |  |  |  |  | 
6 | Cc1nc2c(n1C)C(=O)c1nc(CBr)[nH]c(=O)c1C2=O | > 100 | > 100 | 54.9 |  | > 100 |  | > 100 | > 100 | > 100 | > 100 |  |  |  |  |  |  |  |  |  | 
7 | COc1cc(/C=N/n2c(Cc3ccc(Cl)cc3)n[nH]c2=O)cc(OC)c1OC | > 100 | > 100 | > 100 | > 100 |  | > 100 |  | > 100 | > 100 | > 100 |  |  |  |  |  |  |  |  |  | 
8 | N#CC(c1nc2ccccc2s1)c1ncnc(Cl)c1[N+](=O)[O-] (stereo unspecified) | > 100 | > 100 | 76.5 | 44.3 | > 100 | 83.2 | 33.5 | 32.7 | 95.7 |  |  |  |  |  |  |  |  |  |  | 
9 | COc1ccc(C2CC(c3cccc(Nc4ccncc4)c3)=NN2c2ccc(Cl)cc2)cc1 (stereo unspecified) | 5.79 | 4.1 | 3.27 | 3.3 | 3.5 | 3.05 | 3.71 | 3.43 |  | 4.37 | 2.19 | 1.81 | 1.66 | 1.73 | 1.82 | 1.63 | 1.79 | 1.81 |  | 1.6
10 | N/C(=N\S(=O)(=O)c1cccc2nsnc12)Nc1ccc(Cl)cc1 | > 100 | > 100 | 63.7 | > 100 | 62.8 |  | 25.7 | > 100 | 77.1 | > 100 |  |  |  |  |  |  |  |  |  | 
11 | CC(C)(C)OC(=O)NCC(=O)NC1c2ccsc2/C(=N/O)[C@H]1O (stereo partly specified) | > 100 | > 100 | > 100 | > 100 | > 100 | > 100 |  | > 100 | > 100 | > 100 |  |  |  |  |  |  |  |  |  | 
12 | N#Cc1c(NC(=S)Nc2ccc(Cl)cc2)sc2c1CCCC2 |  | 33.8 | > 100 | > 100 | > 100 | > 100 | > 100 | > 100 | > 100 | > 100 |  |  |  |  |  |  |  |  |  | 
13 | COCO[C@@H]1C[C@H]2C(=O)N(COC)c3ccccc3C(=O)N2C1 | > 100 | > 100 | > 100 | > 100 | > 100 | > 100 | > 100 | > 100 | > 100 |  |  |  |  |  |  |  |  |  |  | 
14 | O=C1N(c2ccccc2)C2(c3ccccc3)CC3CCCC13S2 (stereo unspecified) | > 100 | > 100 | > 100 | > 100 | 1.84 | > 100 | 75.7 | > 100 | > 100 | > 100 |  |  |  |  |  |  |  |  |  | 
15 | C=CCc1cc(-c2cc(CC=C)c(O)c(CNC)c2)cc(CNC)c1O |  | 31.1 |  |  | 32.1 |  | 28.3 | 29.6 | 28.4 | 27.3 |  |  |  |  |  |  |  |  |  | 
16 | CC(=O)Oc1c(C)c2c(O)c3c1C1=C(OCOC1=C(C)C3=O)/C(C)=C\C(C)(O)C(O)C(C)C(O)C1C(=O)OC(C(C)C1O)C(C)(O)/C=C/C=C(C)C(=O)N2 (stereo unspecified) | > 100 | > 100 | > 100 | > 100 |  | > 100 | > 100 | > 100 | > 100 | > 100 |  |  |  |  |  |  |  |  |  | 
17 | COC(=O)c1cc2c3c(cc(N(C)C)c2[nH]1)N(C(=O)c1cc2cc(OC)c(OC)c(OC)c2[nH]1)CC3CCl (stereo unspecified) | 0.101 | 0.318 | 2.79 | 0.0548 |  | < 0.0025 | 0.0113 |  |  | 0.788 |  |  |  |  |  |  |  |  |  | 
18 | COc1ccc2c(c1)CCN=C2Cc1cc(OC)c(OC)cc1CCCl | > 100 | > 100 | > 100 | > 100 | > 100 | > 100 | 60.1 | > 100 | > 100 | > 100 |  |  |  |  |  |  |  |  |  | 
19 | C#CCn1ncc2c(SC)ncnc21 | > 100 | > 100 | > 100 | > 100 | > 100 | > 100 | > 100 | > 100 | > 100 | > 100 |  |  |  |  |  |  |  |  |  | 
20 | O=S1(=O)C(c2ccccc2)C(N2CCCCC2)C1C1CC2c3ccccc3C1c1ccccc12 (stereo unspecified) | > 100 | > 100 | > 100 | > 100 | > 100 | > 100 | > 100 | > 100 | > 100 | > 100 |  |  |  |  |  |  |  |  |  | 
